# Entries after “also recorded” stand apart in the source; their conditions may differ.
# Key:
# MCF-10A cells [1] = assay: Soft agar colony formation of MCF-10A cells co-transduced with Mnk2a and oncogenic Ras; format: cell-based, human; details: H-RAS V12, colonies counted 14 days later, FIGS. 4F-G
# Protocol: (§1) (C-D). […] (*, **, ***p≦0.01n=3).
# Anchorage-independent growth: Colony formation in soft agar was assayed as described previously (17). Plates were incubated at 37° C. and 5% CO2. After 10-18 days, colonies were counted from ten different fields in each of two wells for each transductant pool and the average number of colonies per well was calculated. The colonies were stained and photographed under a light microscope at 100× magnification.
# p38 = details: MCF-10A, 1 μM anisomycin, 10 μM SB203580, FIG. 4E
# Protocol: (E) MCF-10A cells transduced with retroviruses containing the indicated Mnk2 isoforms or a kinase dead version of Mnk2a (Mnk2aKD) or with isoform specific shRNAs against Mnk2a were treated with 1 μM anisomycin, in the presence or absence of 10 μM SB203580. Cells were lysed and proteins were subjected to Western blot analysis with the indicated antibodies.
# Immunoblotting: Cells were lysed in Laemmli buffer and analyzed for total protein concentration as described previously (17). 30 μg of total protein from each cell lysate was separated by SDS-PAGE and transferred to a nitrocellulose membrane. The membranes were blocked, probed with antibodies and detected using enhanced chemiluminescence. Primary antibodies were anti phospho-eIF4E Ser209 (1:1000), eIF4E (1:1000), phospho-p38 (Thr180/Tyr182) (1:1000), phospho-MNK (T197/T202) (1:1000), phospho-MK2 (1:1,000), MK2 (1:1,000), (Cell Signaling Technology). […] Secondary antibodies were HRP-conjugated goat anti-mouse, goat anti-rabbit or donkey anti-goat IgG (H+L) (1:10,000, Jackson Laboratories).
# Panc-1 cells = assay: Anisomycin-induced cell death of Panc-1 cells expressing Mnk2a, with or without p38 inhibitor; format: cell-based, human; details: Panc-1, 0.5 μM anisomycin, 20 μM SB203580, FIG. 5J
# Protocol: After selection with hygromycin transductants were maintained in growth factor-free medium in suspension for 48 h. Cell death was measured using the trypan blue exclusion assay. (J) Human pancreatic cancer cells Panc-1 were seeded on 96-well plates (6000 cells/well). Following starvation cells were treated with 0.5 μM anisomycin in the presence or absence of 20 μM SB203580. (*, **p≦0.01). (K) MCF-10A cells were transduced as in (I). After selection cells were seeded in 6-well plates. 24 h later cells were serum starved in a growth factor-free medium for 24 h. Following starvation cells were treated with 0.5 M Sorbitol (to induce osmotic shock) and 24 h later were stained with trypan blue (n=2). (L) MCF-10A transduced with the indicated retroviruses encoding for shRNAs against Mnk2a were seeded as in (K). (*, p≦0.01, ** p≦0.05). […] 10 days post selection with hygromycin cells were assessed for colony formation with methylene blue staining. n=3. […]
# Survival and apoptosis assays: MCF-10A or Panc-1 cells were transduced with the indicated retroviruses. […] Cells were fixed and stained with methylene blue and the absorbance at 650 nm of the acid-extracted stain was measured on a plate reader (BioRad) and was normalized to cell absorbance at “Time 0”. […] 10 μl of the cell suspension was mixed with 10 μl of 4% trypan blue solution and live/dead cells were counted in Bio-Rad TC-10 Automated Cell Counter. […]
# MCF-10A cells [2] = assay: Cell death induced by constitutively active p38α in MCF-10A cells expressing Mnk2a; format: cell-based, human; details: 20 μM SB203580 for 48 hours, FIGS. 4A-B
# Excerpt: as §1
# Mnk2 splicing = assay: RT-PCR of Mnk2 splicing after PNA treatment; format: cell-based, human; details: Ras-transformed MCF-10A cells, FIG. 36C
# Protocol: (§2) FIGS. 36A-C. […] Ras-transformed MCF-10A cells were incubated for 5 hours with 0.05 μM scrambled (non-specific) PNA or MNK2a specific PNA (see the position of the PNA marked in red in the scheme). 24 h later cells were counted and seeded in low density (20 cells/well) in 6-well plates. 14 days later, surviving colonies were counted and photographed.
# RT-PCR: Total RNA was extracted with Tri reagent (Sigma) and 2 μg of total RNA was reverse transcribed using the AffinityScript (Stratagene) reverse transcriptase. PCR was performed on 1/10 (2 μl) of the cDNA, in 50 μl reactions containing 0.2 mM dNTP mix, 10×PCR buffer with 15 mM MgCl2 (ABI), 2.5 units of TaqGold (ABI) and 0.2 […]; 5% (v/v) DMSO was included in some reactions. PCR conditions were 95° C. for 5 min, then 33 cycles of 94° C. for 30 s, 57° C. for 30 s and 72° C. for 45 s, followed by 10 min at 72° C. PCR products were separated on 1.5% or 2% agarose gels. Primers are listed herein below.
# [3] = tested on: Ras-transformed MCF-10A breast cells; assay: Colony survival of Ras-transformed MCF-10A cells after PNA incubation; format: cell-based, human; details: 0.05 μM PNA for 5 hours, seeded 20 cells/well, colonies counted 14 days later, versus scrambled PNA
# Protocol: as §2
# Mnk1/2 [4] = assay: Western blot of p38-MAPK phosphorylation in MEFs treated with Mnk1/2 kinase inhibitor; format: cell-based, mouse; details: CGP 57380 for 4 h, FIG. 5E
# Excerpt: (A) MCF-10A cells were transduced with the indicated retroviruses encoding for Mnk2 isoforms or Mnk2aKD. Total protein from stable pools was extracted and separated on SDS-PAGE and was subjected to Western blot analysis with the indicated antibodies. Numbers represent ratio of p-p38/total p38 normalized to that of pBABE (arbitrarily set at 1)±SD (n=2). (B) MCF-10A cells described in (A) were transduced by H-RAS^V12 and after selection cells were lysed and subjected to Western blot analysis with the indicated antibodies. Numbers representing ratio of p-p38/total p38 were calculated as described in (A) (n=2). (C) Immortal MEFs from Mnk2^−/− mouse were transduced with retrovirus encoding either no mammalian protein (pBABE) or various Mnk2 variants. […] (D) Immortal MEFs from WT, Mnk1^−/− or Mnk2^−/− mice were lysed and analyzed as in (A). (E) Immortal MEFs described in (D) were seeded in 6-well plates. […]
# (A) Cell lines from breast immortal or cancer (MCF-7, MDA-MB-231, SUM-149, SUM-159, MDA-MB-468) cell lines were seeded in 6-well plates and 24 h later were lysed and subjected to Western blot analysis with the indicated antibodies. (B-C) Quantitation of p38 and eIF4E phosphorylation levels. […] (G) MCF-10A cells were seeded in 6-well plates, treated and analyzed as in (D). […]
# Mnk1/2 [5] = assay: Q-RT-PCR of p38α target genes FOS and COX-2 in MCF-10A cells; format: cell-based, human; details: serum starved, CGP 57380 for 8-10 h, FIG. 7E
# Protocol: (C). RNA from WT MEFs, Mnk2^−/− MEFS and Mnk2^−/− MEFS transduced with Mnk2a was extracted and the levels of FOS and COX-2 were analyzed by Q-RT-PCR. (D). RNA from MCF-10A cells transduced with the indicated Mnk2 isoforms and the indicated Mnk2a mutants was extracted and the levels of FOS and COX-2 were measured as described above. (E). MCF-10A cells were seeded in 10 cm plates. 24 h later, cells were serum starved for an additional 24 h, then treated with Mnk1/2 inhibitor CGP 57380 at the indicated concentrations for 8-10 h. RNA from cells was extracted and the levels of p38α-targets genes; FOS and COX-2 were measured by Q-RT-PCR as described above. (F). MCF-10A cells described in (D) were serum starved for 24 h and then treated with 0.5 μM anisomycin for 24 h and were subjected to trypan-blue exclusion assay (Graph). Bottom panel: cells described in (F) were centrifuged and lysed with Laemmli buffer and proteins were subjected to Western blot analysis. […]
# Q-RT-PCR: Total RNA was extracted with Tri reagent (Sigma) and 2 μg of total RNA was reverse transcribed using the AffinityScript (Stratagene) reverse transcriptase. The mRNA levels of FOS, and COX-2 were determined in MCF-10A breast cell lines by performing quantitative PCR with SYBER Green (SYBR® Premix Ex Taq™ # RR041A) using the CFX96 (Bio-Rad) machine. […]
# Mnk1/2 [6] = assay: Western blot of p38-MAPK phosphorylation in MCF-10A cells treated with Mnk1/2 kinase inhibitor; format: cell-based, human; details: CGP 57380 for 4 h, FIG. 8G
# Protocol: (A) Cell lines from breast immortal or cancer (MCF-7, MDA-MB-231, SUM-149, SUM-159, MDA-MB-468) cell lines were seeded in 6-well plates and 24 h later were lysed and subjected to Western blot analysis with the indicated antibodies. (B-C) Quantitation of p38 and eIF4E phosphorylation levels. The level of phosphorylated p38 and eIF4E was normalized to that of their total level. Results are presented as an average±SD (n=2). (D-F) Immortal MEFs from WT (Mnk 1/2 WT), Mnk1^−/− or Mnk2^−/− mice were seeded in 6-well plates. 24 h later cells were either treated with the vehicle (DMSO) or treated with the Mnk1/2 kinase inhibitor, CGP 57380 (CGP) at the indicated concentrations for 4 h, and subjected to Western blot analysis with the indicated antibodies. (G) MCF-10A cells were seeded in 6-well plates, treated and analyzed as in (D). […] C-myc (nuclear) and caspase-2 (cytoplasmic) served as fractionation controls.
compound,measurement,setting,value
C[S+]([O-])c1ccc(-c2nc(-c3ccncc3)c(-c3ccc(F)cc3)[nH]2)cc1 (stereo not shown) [SB203580],colony formation in soft agar of cells co-transduced with Mnk2a and Ras,MCF-10A cells [1],rescued the ability of cells co-transduced with Mnk2a and Ras to form colonies in soft agar
same,p38 activity measured by phosphorylation of its substrate MK-2,p38,efficiently inhibited p38 activity
same,anisomycin-induced cell death of cells expressing Mnk2a,Panc-1 cells,partially rescued; also recorded: rescued Panc-1 cells from Mnk2a-induced sensitivity to anisomycin treatment
same,cell death upon active p38-MAPK transduction in cells expressing Mnk2a,MCF-10A cells [2],inhibited by SB203580
"PNA: PNA based molecule hybridizing to the bridging region between exon 14b and the preceding intron, preventing Mnk2b generation; likely SEQ ID NO: 157 (AGACTTCCACCCTGTCAG; PNA modified oligonucleotide, pattern not given here)",Mnk2 splicing (Mnk2a level) by RT-PCR,Mnk2 splicing,can modulate Mnk2 splicing to elevate Mnk2a
same,survival of Ras-transformed MCF-10A breast cells (surviving colonies),[3],reduces survival; also recorded: decreased the survival
Nc1ncnc2n[nH]c(Nc3ccc(F)cc3)c12 [CGP 57380],p38 phosphorylation in Mnk2-/- MEFs,"Mnk1/2 [4]; Mnk2-/- MEFs, FIG. 8D-F",could not be further reduced
same,"p38-MAPK phosphorylation (T180, Y182) in WT and Mnk1-/- MEFs",Mnk1/2 [4]; WT and Mnk1-/- MEFs,reduced p38-MAPK phosphorylation
same,"expression of p38-MAPK target genes (FOS, COX-2)",Mnk1/2 [5],reduced the expression p38-MAPK target genes
same,p38-MAPK phosphorylation in MCF-10A cells,Mnk1/2 [6],reduced p38-MAPK phosphorylation
